Results published in US11969505B2, “Method for freeze-drying cells in a hydrogel comprising nanofibrillar cellulose and freeze-dried cells in an aerogel comprising nanofibrillar cellulose” (UPM-KYMMENE CORPORATION, priority 2016, dated 2024).

System: Hep G2 cells
Assay: Cellstain double staining (Live/Dead, calcein AM / propidium iodide) viability after freeze-drying and rehydration
Type: cell-based, human
Details: 24 h trehalose incubation, same lyoprotectants, liquid nitrogen freezing; with vs without GrowDex
From the text: One method to evaluate the cell membrane integrity is enzyme activity assays combined with nuclei staining. Calcein AM (acetoxy methyl) ester and propidium iodide are suitable for viability assessment of different microbes. Calcein AM is itself a non-fluorescent and cell membrane permeable molecule, but undergoes an esterase reaction when in cytosol if correct enzymes are available and transforms into calcein, which is a fluorescent molecule. This way, the fluorescent cells can be visually observed with fluorescence microscopy or a plate reader.
Therefore, only necrotic cells are affected, whereas apoptotic and healthy cells not. Once in the cytosol, the PI binds to any available DNA and RNA, including the DNA in nucleus. When excited with 535 nm light, an emission of 617 nm can be observed on the areas of dead cells.
Three lyoprotectants were chosen for testing with GrowDex®. First, the cells were cultivated regularly for 4 days either in 2D or 3D with 0.8% (w/w) of GrowDex®, and then the medium was changed. […] Then, the systems were freeze-dried and rehydrated and evaluated for viability with Cellstain double staining and fluorescence microscopy. […]
Autofluorescence was ruled out by killed control samples that were stained and imaged at the same time showing no green fluorescence in identical settings. […]

SMILES: OC[C@H]1O[C@H](O[C@H]2O[C@H](CO)[C@@H](O)[C@H](O)[C@H]2O)[C@H](O)[C@@H](O)[C@@H]1O [trehalose, α-D-glucopyranosyl-(1→1)-α-D-glucopyranoside]
- Live/dead dual staining outcome after freeze-drying and rehydration: the cells did not survive
